Assay results reported in the supplement of paper PMC8671470.

Experiments:
Assay in all cases: cell viability (% survival relative to DMSO control); higher = less cytotoxic
Details in all cases: 72 h
BV-173 = test system: BV-173
Procedure: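 8x8 drug-combination matrices (0–5000 nM; rosiglitazone and lestaurtinib 0–1000 nM) were run in BV-173 cells for 72 h with CellTiter-Glo read-out. Survival is normalised to DMSO and 10 µM bortezomib and clipped at 100%.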

HL-60 = test system: HL-60
Procedure: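 8x8 drug-combination matrices (0-5000 nM; rosiglitazone and lestaurtinib 0-1000 nM) were run in HL-60 cells for 72 h with a CellTiter-Glo read-out. Survival is normalised to DMSO and 10 µM bortezomib and clipped at 100%. Bliss synergy was analysed in SynergyFinder.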

Mono-Mac-6 = test system: Mono-Mac-6
Procedure: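 8x8 drug-combination matrices (0–5000 nM; rosiglitazone and lestaurtinib 0–1000 nM) were run in Mono-Mac-6 cells for 72 h with CellTiter-Glo read-out. Survival is normalised to DMSO and 10 µM bortezomib and clipped at 100%.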

O=C(O)CC[N+](=O)[O-] [3-nitropropionic acid] + CCn1c(=Cc2cccc[n+]2CC)sc(=C2Sc3ccccc3N2C)c1=O [MKT 077]
cell viability [%]
Details | drug1 concentration 5 nM | drug1 concentration 10 nM | drug1 concentration 50 nM | drug1 concentration 100 nM | drug1 concentration 500 nM | drug1 concentration 1000 nM | drug1 concentration 5000 nM
BV-173, drug2 concentration 5 nM | 83.1 | 78.6 | 88.7 | > 100 | > 100 | 83.5 | 59.7
BV-173, drug2 concentration 10 nM | 97.8 | > 100 | > 100 | 94.6 | 72.9 | 92.9 | > 100
BV-173, drug2 concentration 50 nM | 93.3 | > 100 | > 100 | > 100 | > 100 | 99.5 | > 100
BV-173, drug2 concentration 100 nM | 78.1 | 85.8 | > 100 | 94.3 | > 100 | > 100 | 87.9
BV-173, drug2 concentration 500 nM | > 100 | 84.2 | 84.2 | 86.4 | > 100 | 76.6 | > 100
BV-173, drug2 concentration 1000 nM | > 100 | > 100 | > 100 | > 100 | 89.1 | 88.9 | 74.4
BV-173, drug2 concentration 5000 nM | > 100 | 72 | > 100 | > 100 | > 100 | > 100 | > 100
HL-60, drug2 concentration 5 nM | 95.5 | 92.9 | 74.5 | > 100 | > 100 | > 100 | 88.8
HL-60, drug2 concentration 10 nM | > 100 | > 100 | > 100 | > 100 | > 100 | > 100 | > 100
HL-60, drug2 concentration 50 nM | > 100 | 92.7 | > 100 | 98.3 | 97.7 | > 100 | > 100
HL-60, drug2 concentration 100 nM | 91.2 | 83.3 | 56.4 | > 100 | 99.2 | 50.3 | > 100
HL-60, drug2 concentration 500 nM | 99.2 | 84.2 | > 100 | > 100 | > 100 | 84.7 | 86.6
HL-60, drug2 concentration 1000 nM | > 100 | > 100 | > 100 | > 100 | 84 | > 100 | 67.3
HL-60, drug2 concentration 5000 nM | > 100 | 79.2 | > 100 | 84.7 | > 100 | > 100 | 99.6
Mono-Mac-6, drug2 concentration 5 nM | > 100 | 98.1 | > 100 | 90.2 | > 100 | > 100 | 90.3
Mono-Mac-6, drug2 concentration 10 nM | > 100 | > 100 | > 100 | > 100 | > 100 | > 100 | > 100
Mono-Mac-6, drug2 concentration 50 nM | > 100 | > 100 | > 100 | 91 | 96.5 | 86 | > 100
Mono-Mac-6, drug2 concentration 100 nM | 84.8 | > 100 | > 100 | > 100 | > 100 | > 100 | 76.8
Mono-Mac-6, drug2 concentration 500 nM | 99.9 | 82.8 | > 100 | > 100 | > 100 | 84.4 | > 100
Mono-Mac-6, drug2 concentration 1000 nM | > 100 | > 100 | > 100 | > 100 | 96.7 | 87 | 82.4
Mono-Mac-6, drug2 concentration 5000 nM | 79.1 | 74.4 | > 100 | > 100 | 63.8 | > 100 | > 100
